# Laboratory results: US20050229276A1, “Method of producing cyclamen root tuber and method of proliferating cyclamen using the same” (Tokyo University of Agricultural, priority 2002, published 2005)
# Legend:
# [1] = tested on: explants from leaves of cyclamen (species: Flamenco); experiment: Culture of explants from leaves (comparative); assay type: cell-based; settings: NAA 0.05 mg/l, 20 explants planted, 30 days
# Procedure: For comparison, the explants from leaves and petioles of cyclamen (species: Flamenco) were cultured for 30 days by changing the contents of BA and sucrose in a basal medium prepared by adding 0.05 mg/l of NAA and 6 g/l of agar to the ⅓ MS medium and having a pH of 7.0. In all the cases, the root tubers were hardly enlarged by culture and rarely regenerated and accordingly, a clonal plant could not be obtained with high reproducibility.
# [2] = tested on: cyclamen (cultivar: Dressy Scarlet) seedling; experiment: Growth of root tubers at cut root ends of seedlings in solid media; assay type: in vivo; settings: 30-th day
# Procedure: A cyclamen (cultivar: Dressy Scarlet) seed was immersed in an ethyl alcohol aqueous solution having an ethyl alcohol concentration of 70 wt % for 10 seconds and in a sodium hypochlorite solution having an effective chlorine concentration of 1 wt % for 10 minutes to sterilize the surface of the seed. Thereafter, this seed was washed in sterilized water 3 times to remove the sodium hypochlorite from the surface of the seed. This was sown in an MS solid medium containing 30 g/l of sucrose and 6 g/l of agar under a germ-free condition and cultured at a temperature of 20° C. under weak light for 30 days to be germinated and rooted.
# The end portions of the roots of the above germinated and rooted cyclamen seedling were cut off with a scalpel, and the seedling was planted in the following solid media. As the media, a large number of experimental plots were prepared by adding NAA and BA as phytohormones to the ⅓ MS medium in concentrations shown in Tables 1 to 3 and further adding 30 to 90 g/l of sucrose. 6 g/l of agar was added to all of the media which were then sterilized in an autoclave to prepare media having a pH of 7.0. 10 ml of each of the solid media was placed in a 50 ml culture test tube. The stationary culture of the seedling planted in each of the media was carried out at 20° C. under weak light for a certain number of days to grow root tubers at the end portions of its roots.
# [3] = sucrose 30 g/l, BA 0.1 mg/l, NAA 0.00 mg/l
# [4] = sucrose 30 g/l, BA 0.1 mg/l, NAA 0.01 mg/l
# [5] = sucrose 30 g/l, BA 0.1 mg/l, NAA 0.05 mg/l
# [6] = sucrose 30 g/l, BA 1.0 mg/l, NAA 0.00 mg/l
# [7] = sucrose 30 g/l, BA 1.0 mg/l, NAA 0.01 mg/l
smiles,measurement,setting,value
"c1ccc(CNc2ncnc3[nH]cnc23)cc1 [BA, benzylaminopurine]",Number of enlarged explants,[1]; BA 0.05 mg/l,0
same,Number of regenerate explants,[1]; BA 0.05 mg/l,0
same,Number of enlarged explants,"[1]; BA 0.05 mg/l, sucrose 30 g/m",1
same,Number of regenerate explants,"[1]; BA 0.05 mg/l, sucrose 30 g/m",0
same,Number of enlarged explants,"[1]; BA 0.05 mg/l, sucrose 70 g/m",0
same,Number of regenerate explants,"[1]; BA 0.05 mg/l, sucrose 70 g/m",0
same,Number of enlarged explants,"[1]; BA 0.05 mg/l, sucrose 90 g/m",0
same,Number of regenerate explants,"[1]; BA 0.05 mg/l, sucrose 90 g/m",0
same,Number of enlarged explants,[1]; BA 0.1 mg/l,1
same,Number of regenerate explants,[1]; BA 0.1 mg/l,0
same,Number of enlarged explants,"[1]; BA 0.1 mg/l, sucrose 30 g/m",2
same,Number of regenerate explants,"[1]; BA 0.1 mg/l, sucrose 30 g/m",1
same,Number of enlarged explants,"[1]; BA 0.1 mg/l, sucrose 70 g/m",0
same,Number of regenerate explants,"[1]; BA 0.1 mg/l, sucrose 70 g/m",0
same,Number of enlarged explants,"[1]; BA 0.1 mg/l, sucrose 90 g/m",0
same,Number of regenerate explants,"[1]; BA 0.1 mg/l, sucrose 90 g/m",0
same,Number of enlarged explants,[1]; BA 0.5 mg/l,4
same,Number of regenerate explants,[1]; BA 0.5 mg/l,1
same,Number of enlarged explants,"[1]; BA 0.5 mg/l, sucrose 30 g/m",2
same,Number of regenerate explants,"[1]; BA 0.5 mg/l, sucrose 30 g/m",2
same,Number of enlarged explants,"[1]; BA 0.5 mg/l, sucrose 70 g/m",1
same,Number of regenerate explants,"[1]; BA 0.5 mg/l, sucrose 70 g/m",0
same,Number of enlarged explants,"[1]; BA 0.5 mg/l, sucrose 90 g/m",2
same,Number of regenerate explants,"[1]; BA 0.5 mg/l, sucrose 90 g/m",0
same,Number of enlarged explants,[1]; BA 1 mg/l,4
same,Number of regenerate explants,[1]; BA 1 mg/l,2
same,Number of enlarged explants,"[1]; BA 1 mg/l, sucrose 30 g/m",6
same,Number of regenerate explants,"[1]; BA 1 mg/l, sucrose 30 g/m",3
same,Number of enlarged explants,"[1]; BA 1 mg/l, sucrose 70 g/m",3
same,Number of regenerate explants,"[1]; BA 1 mg/l, sucrose 70 g/m",1
same,Number of enlarged explants,"[1]; BA 1 mg/l, sucrose 90 g/m",5
same,Number of regenerate explants,"[1]; BA 1 mg/l, sucrose 90 g/m",1
same,Number of grown root tubers,"[2]; BA 0.0 mg/l, sucrose 30 g/l, NAA 0.05 mg/l, 23 roots cut off",23
same,Enlarging ratio (diameter of root tuber vs root at start = 1),"[2]; BA 0.0 mg/l, sucrose 30 g/l, NAA 0.05 mg/l",8.4
same,Number of grown root tubers,"[2]; BA 0.1 mg/l, sucrose 30 g/l, NAA 0.05 mg/l, 17 roots cut off",17
same,Enlarging ratio (diameter of root tuber vs root at start = 1),"[2]; BA 0.1 mg/l, sucrose 30 g/l, NAA 0.05 mg/l",2.3
same,Number of grown root tubers,"[2]; BA 0.1 mg/l, sucrose 50 g/l, NAA 0.05 mg/l, 17 roots cut off",16
same,Enlarging ratio (diameter of root tuber vs root at start = 1),"[2]; BA 0.1 mg/l, sucrose 50 g/l, NAA 0.05 mg/l",3.2
same,Number of grown root tubers,"[2]; BA 0.1 mg/l, sucrose 70 g/l, NAA 0.05 mg/l, 21 roots cut off",21
same,Enlarging ratio (diameter of root tuber vs root at start = 1),"[2]; BA 0.1 mg/l, sucrose 70 g/l, NAA 0.05 mg/l",3.8
same,Number of grown root tubers,"[2]; BA 0.1 mg/l, sucrose 90 g/l, NAA 0.05 mg/l, 18 roots cut off",18
same,Enlarging ratio (diameter of root tuber vs root at start = 1),"[2]; BA 0.1 mg/l, sucrose 90 g/l, NAA 0.05 mg/l",5.0
same,Number of grown root tubers,"[2]; BA 0.5 mg/l, sucrose 30 g/l, NAA 0.05 mg/l, 20 roots cut off",20
same,Enlarging ratio (diameter of root tuber vs root at start = 1),"[2]; BA 0.5 mg/l, sucrose 30 g/l, NAA 0.05 mg/l",6.6
same,Number of grown root tubers,"[2]; BA 0.5 mg/l, sucrose 50 g/l, NAA 0.05 mg/l, 21 roots cut off",20
same,Enlarging ratio (diameter of root tuber vs root at start = 1),"[2]; BA 0.5 mg/l, sucrose 50 g/l, NAA 0.05 mg/l",9.5
same,Number of grown root tubers,"[2]; BA 0.5 mg/l, sucrose 70 g/l, NAA 0.05 mg/l, 25 roots cut off",25
same,Enlarging ratio (diameter of root tuber vs root at start = 1),"[2]; BA 0.5 mg/l, sucrose 70 g/l, NAA 0.05 mg/l",7.2
same,Number of grown root tubers,"[2]; BA 0.5 mg/l, sucrose 90 g/l, NAA 0.05 mg/l, 16 roots cut off",16
same,Enlarging ratio (diameter of root tuber vs root at start = 1),"[2]; BA 0.5 mg/l, sucrose 90 g/l, NAA 0.05 mg/l",6.0
same,Number of grown root tubers,"[2]; BA 1.0 mg/l, sucrose 50 g/l, NAA 0.05 mg/l, 24 roots cut off",23
same,Enlarging ratio (diameter of root tuber vs root at start = 1),"[2]; BA 1.0 mg/l, sucrose 50 g/l, NAA 0.05 mg/l",6.3
same,Number of grown root tubers,"[2]; BA 1.0 mg/l, sucrose 70 g/l, NAA 0.05 mg/l, 17 roots cut off",17
same,Enlarging ratio (diameter of root tuber vs root at start = 1),"[2]; BA 1.0 mg/l, sucrose 70 g/l, NAA 0.05 mg/l",5.4
same,Number of grown root tubers,"[2]; BA 1.0 mg/l, sucrose 90 g/l, NAA 0.05 mg/l, 4 roots cut off",3
same,Enlarging ratio (diameter of root tuber vs root at start = 1),"[2]; BA 1.0 mg/l, sucrose 90 g/l, NAA 0.05 mg/l",3.8
same,Number of large root tubers (diameter of 1 mm or more),[2]; [3],4
same,Total number of root tubers,[2]; [3],18
same,Number of large root tubers (diameter of 1 mm or more),[2]; [4],5
same,Total number of root tubers,[2]; [4],15
same,Number of large root tubers (diameter of 1 mm or more),[2]; [5],5
same,Total number of root tubers,[2]; [5],15
same,Number of large root tubers (diameter of 1 mm or more),[2]; [6],2
same,Total number of root tubers,[2]; [6],6
same,Number of large root tubers (diameter of 1 mm or more),[2]; [7],3
same,Total number of root tubers,[2]; [7],5
